The text below walks through data of US20230210999A1, “TARGETED PROTEASE DEGRADATION (TED) PLATFORM” (EUBULUS BIOTHERAPEUTICS INC., priority 2020, published 2023).

One may read the IC50 as the point on the concentration scale where inhibition reaches its midpoint.

The subject of the first experiment is U-87MG cells. As to the kind of experiment: Cell proliferation experiment, U-87MG. In kind it is cell-based. The conditions noted are these: Homo sapiens; U-87MG cells, 72 h; read-out: Inhibitory activity IC50 of tested compounds on U-87MG cells. As to the method: (§1) Reagents: RPMI-1640 medium, McCoy's 5A medium, IMDM medium, MEM medium, L-15 medium, fetal bovine serum. Penicillin-Streptomycin double antibody, trypsin, etc., 2-mercaptoethanol, NEAA, pyruvate, etc.
(§2) The cells were cultured in conventional ways, and the cells should be passed at least 2 generations before plating. Cells at the logarithmic growth phase were collected, prepared into single cell suspensions and counted. The concentration of cells was adjusted to the desired concentration, and cells were inoculated into a 96-well cell culture plate at 100 μl per well. 100 μL of complete medium of the test compound were added to each well, set up 2 duplicate wells for each concentration, and diluted with a 5-fold gradient, and continued to culture for 72 h. All cells were subjected to IC50 test for corresponding samples. The experimental results are shown in Test Example 4.
(§3) The fluorescence intensity of each well was detected using the Alarm blue method, and IC50 was calculated.
(§4) IC50 was calculated according to the following formula:
(§5) Y=Max+(Min−Max)/[1+(X/IC50)×Slope]
(§6) wherein Min, Max and Slope represent the minimum, maximum and slope respectively.
As for `CC[C@@H]1C(=O)N(C)c2cnc(Nc3ccc(C(=O)NC4CCN(CCCCNCCC#Cc5cccc6c5CN(C5CCC(=O)NC5=O)C6=O)CC4)cc3OC)nc2N1C1CCCC1` (stereo partly shown) [Compound 909], the IC50 was not above 100 nM.
Consider `CC[C@@H]1C(=O)N(C)c2cnc(Nc3ccc(C(=O)NC4CCN(CCCCN(C)CCC#Cc5cccc6c5CN(C5CCC(=O)NC5=O)C6=O)CC4)cc3OC)nc2N1C1CCCC1` (stereo partly shown) [Compound 910], for which the IC50 is 100 to 500 nM.
`CC[C@@H]1C(=O)N(C)c2cnc(Nc3ccc(C(=O)NC4CCN(CCCN(C)CCCOCCCC#Cc5cccc6c5CN(C5CCC(=O)NC5=O)C6=O)CC4)cc3OC)nc2N1C1CCCC1` (stereo partly shown) [Compound 911]: the IC50 is not above 100 nM.
Turning to `CC[C@@H]1C(=O)N(C)c2cnc(Nc3ccc(C(=O)NCCCOCCCNCCC#Cc4cccc5c4CN(C4CCC(=O)NC4=O)C5=O)cc3OC)nc2N1C1CCCC1` (stereo partly shown) [Compound 912], the IC50 is not above 100 nM.
For the compound `CC[C@@H]1C(=O)N(C)c2cnc(Nc3ccc(C(=O)NCCCOCCCN(C)CCC#Cc4cccc5c4CN(C4CCC(=O)NC4=O)C5=O)cc3OC)nc2N1C1CCCC1` (stereo partly shown) [Compound 913], the IC50 was not above 100 nM.

Another experiment has as its system Daudi cells. As to the kind of experiment: Cell proliferation experiment, Daudi. In kind it is cell-based, human. The conditions noted are these: Homo sapiens, Daudi, 72 h, Daudi cells, 72 h; read-out: Inhibitory activity IC50 of tested compounds on Daudi cells. Put shortly: (§7)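 Viability measured by Alamar blue fluorescence after 72 h culture with compound (5-fold serial dilutions, two wells each) added to log-phase cells. IC50 derived from a Min/Max/Slope logistic equation.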
On to `CC[C@@H]1C(=O)N(C)c2cnc(Nc3ccc(C(=O)NC4CCN(CCCCNCCC#Cc5cccc6c5CN(C5CCC(=O)NC5=O)C6=O)CC4)cc3OC)nc2N1C1CCCC1` (stereo partly shown) [Compound 909], for which the half-maximal inhibitory concentration (IC50) was not above 100 nM.
As for `CC[C@@H]1C(=O)N(C)c2cnc(Nc3ccc(C(=O)NC4CCN(CCCCN(C)CCC#Cc5cccc6c5CN(C5CCC(=O)NC5=O)C6=O)CC4)cc3OC)nc2N1C1CCCC1` (stereo partly shown) [Compound 910], the IC50 is not above 100 nM.
Regarding `CC[C@@H]1C(=O)N(C)c2cnc(Nc3ccc(C(=O)NC4CCN(CCCN(C)CCCOCCCC#Cc5cccc6c5CN(C5CCC(=O)NC5=O)C6=O)CC4)cc3OC)nc2N1C1CCCC1` (stereo partly shown) [Compound 911], the IC50 was not above 100 nM.
Still for that read-out and setting: the figure for `CC[C@@H]1C(=O)N(C)c2cnc(Nc3ccc(C(=O)NCCCOCCCNCCC#Cc4cccc5c4CN(C4CCC(=O)NC4=O)C5=O)cc3OC)nc2N1C1CCCC1` (stereo partly shown) [Compound 912] is not above 100 nM; for `CC[C@@H]1C(=O)N(C)c2cnc(Nc3ccc(C(=O)NCCCOCCCN(C)CCC#Cc4cccc5c4CN(C4CCC(=O)NC4=O)C5=O)cc3OC)nc2N1C1CCCC1` (stereo partly shown) [Compound 913] it is not above 100 nM.

In the next experiment the test system is MV4;11 cells. As to the kind of experiment: Cell proliferation experiment (Alamar blue, 72 h), MV4;11. In kind it is cell-based, human. To be noted: Homo sapiens, MV4-11, 72 h, MV4;11 cells, 72 h; read-out: Inhibitory activity IC50 of tested compounds on MV4;11 cells. Put shortly:
as §7
As to `CC[C@@H]1C(=O)N(C)c2cnc(Nc3ccc(C(=O)NC4CCN(CCCCNCCC#Cc5cccc6c5CN(C5CCC(=O)NC5=O)C6=O)CC4)cc3OC)nc2N1C1CCCC1` (stereo partly shown) [Compound 909], the 50% inhibitory concentration (IC50) is not above 100 nM.
Same read-out and setting: the figure for `CC[C@@H]1C(=O)N(C)c2cnc(Nc3ccc(C(=O)NC4CCN(CCCCN(C)CCC#Cc5cccc6c5CN(C5CCC(=O)NC5=O)C6=O)CC4)cc3OC)nc2N1C1CCCC1` (stereo partly shown) [Compound 910] is not above 100 nM.
Regarding `CC[C@@H]1C(=O)N(C)c2cnc(Nc3ccc(C(=O)NC4CCN(CCCN(C)CCCOCCCC#Cc5cccc6c5CN(C5CCC(=O)NC5=O)C6=O)CC4)cc3OC)nc2N1C1CCCC1` (stereo partly shown) [Compound 911], the IC50 was not above 100 nM.
As to `CC[C@@H]1C(=O)N(C)c2cnc(Nc3ccc(C(=O)NCCCOCCCNCCC#Cc4cccc5c4CN(C4CCC(=O)NC4=O)C5=O)cc3OC)nc2N1C1CCCC1` (stereo partly shown) [Compound 912], the IC50 is not above 100 nM.
On the same count and under the same terms, the figure for `CC[C@@H]1C(=O)N(C)c2cnc(Nc3ccc(C(=O)NCCCOCCCN(C)CCC#Cc4cccc5c4CN(C4CCC(=O)NC4=O)C5=O)cc3OC)nc2N1C1CCCC1` (stereo partly shown) [Compound 913] is not above 100 nM.

The next experiment concerns HT-29 cells. As to the kind of experiment: Cell proliferation experiment, HT-29. In kind it is cell-based. The conditions noted are these: Homo sapiens; HT-29 cells, 72 h; read-out: Inhibitory activity IC50 of tested compounds on HT-29 cells. As to the method: as §1, §2, §3, §4, §5, §6
Regarding `CC[C@@H]1C(=O)N(C)c2cnc(Nc3ccc(C(=O)NC4CCN(CCCCNCCC#Cc5cccc6c5CN(C5CCC(=O)NC5=O)C6=O)CC4)cc3OC)nc2N1C1CCCC1` (stereo partly shown) [Compound 909], the IC50 is not above 300 nM.
Turning to `CC[C@@H]1C(=O)N(C)c2cnc(Nc3ccc(C(=O)NC4CCN(CCCCN(C)CCC#Cc5cccc6c5CN(C5CCC(=O)NC5=O)C6=O)CC4)cc3OC)nc2N1C1CCCC1` (stereo partly shown) [Compound 910], the IC50 was not above 300 nM.
Turning to `CC[C@@H]1C(=O)N(C)c2cnc(Nc3ccc(C(=O)NC4CCN(CCCN(C)CCCOCCCC#Cc5cccc6c5CN(C5CCC(=O)NC5=O)C6=O)CC4)cc3OC)nc2N1C1CCCC1` (stereo partly shown) [Compound 911], the IC50 is 300 to 1000 nM.
In the case of `CC[C@@H]1C(=O)N(C)c2cnc(Nc3ccc(C(=O)NCCCOCCCNCCC#Cc4cccc5c4CN(C4CCC(=O)NC4=O)C5=O)cc3OC)nc2N1C1CCCC1` (stereo partly shown) [Compound 912], the half-inhibitory concentration (IC50) is 300 to 1000 nM.
On to `CC[C@@H]1C(=O)N(C)c2cnc(Nc3ccc(C(=O)NCCCOCCCN(C)CCC#Cc4cccc5c4CN(C4CCC(=O)NC4=O)C5=O)cc3OC)nc2N1C1CCCC1` (stereo partly shown) [Compound 913], for which the IC50 was in the range of 300 to 1000 nM.

Another experiment deals with NCIH82 cells. Briefly: Cell proliferation experiment, NCI-H82. In kind it is cell-based, human. To be noted: Homo sapiens, NCI-H82, 72 h, NCIH82 cells, 72 h; read-out: Inhibitory activity IC50 of tested compounds on NCIH82 cells. Put shortly: as §7
As to `CC[C@@H]1C(=O)N(C)c2cnc(Nc3ccc(C(=O)NC4CCN(CCCCNCCC#Cc5cccc6c5CN(C5CCC(=O)NC5=O)C6=O)CC4)cc3OC)nc2N1C1CCCC1` (stereo partly shown) [Compound 909], the IC50 was not above 1000 nM.
Turning to `CC[C@@H]1C(=O)N(C)c2cnc(Nc3ccc(C(=O)NC4CCN(CCCCN(C)CCC#Cc5cccc6c5CN(C5CCC(=O)NC5=O)C6=O)CC4)cc3OC)nc2N1C1CCCC1` (stereo partly shown) [Compound 910], the IC50 was not above 1000 nM.
As to `CC[C@@H]1C(=O)N(C)c2cnc(Nc3ccc(C(=O)NC4CCN(CCCN(C)CCCOCCCC#Cc5cccc6c5CN(C5CCC(=O)NC5=O)C6=O)CC4)cc3OC)nc2N1C1CCCC1` (stereo partly shown) [Compound 911], the IC50 was not above 1000 nM.
Take `CC[C@@H]1C(=O)N(C)c2cnc(Nc3ccc(C(=O)NCCCOCCCNCCC#Cc4cccc5c4CN(C4CCC(=O)NC4=O)C5=O)cc3OC)nc2N1C1CCCC1` (stereo partly shown) [Compound 912]: the IC50 was not above 1000 nM.
`CC[C@@H]1C(=O)N(C)c2cnc(Nc3ccc(C(=O)NCCCOCCCN(C)CCC#Cc4cccc5c4CN(C4CCC(=O)NC4=O)C5=O)cc3OC)nc2N1C1CCCC1` (stereo partly shown) [Compound 913]: the IC50 is not above 1000 nM.
